What all share (format): biochemical
One test addresses T1, LOXL1 (Homo sapiens, UniProt Q08397).
T1 sequence (Q08397 96-574): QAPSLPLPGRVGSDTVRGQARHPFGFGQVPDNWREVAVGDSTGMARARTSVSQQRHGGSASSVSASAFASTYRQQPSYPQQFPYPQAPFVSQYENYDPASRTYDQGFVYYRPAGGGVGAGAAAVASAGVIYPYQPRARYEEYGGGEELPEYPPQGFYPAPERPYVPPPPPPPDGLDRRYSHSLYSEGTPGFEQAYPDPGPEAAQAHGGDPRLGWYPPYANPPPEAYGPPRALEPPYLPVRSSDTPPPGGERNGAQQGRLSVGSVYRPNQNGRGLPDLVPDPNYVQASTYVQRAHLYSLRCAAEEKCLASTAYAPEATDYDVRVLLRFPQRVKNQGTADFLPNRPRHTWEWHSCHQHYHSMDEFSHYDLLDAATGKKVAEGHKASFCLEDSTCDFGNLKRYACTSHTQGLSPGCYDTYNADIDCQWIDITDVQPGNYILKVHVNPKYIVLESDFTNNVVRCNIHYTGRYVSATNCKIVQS
The test can be described thus: LOXL1 inhibition, Amplex Red oxidation assay. As to conditions: 30 min incubation with enzyme at 37 °C. As for the experimental part:
(§1) LOX and LOXL protein family members can be acquired as recombinant active proteins from commercial sources, or extracted from animal tissues like bovine aorta, tendons, pig skin; or prepared from cell cultures. The inhibitory effects of the compounds of the present invention were tested against the given LOX or LOXL preparation using a method based on the detection of hydrogen peroxide with an Amplex Red oxidation assay [Zhou et al, 1997]. The assay was developed using either 384 or 96 well format. Briefly, in a standard black, clear bottom 384 well plate assay 25 µL of a dilution of any of the isoenzymes and orthologues in 1.2 M urea, 50 mM sodium borate buffer (pH 8.2) were added into each well in the presence of […] and 0.5 mM pargyline (to inhibit SSAO and MAO-B and MAO-A, respectively; not necessary if the enzyme is from a recombinant or purified form). Test compounds were dissolved in DMSO and tested in a Concentration Response Curve (CRC) with 11 data points, typically in the micromolar or nanomolar range after incubation with the enzyme for 30 min at 37 °C. […] The fluorescence (RFU) was read every 2.5 min for 30 min at 37 °C, excitation 544 nm and emission 590 (Optima; BMG labtech). The slope/min of the kinetics for each well was calculated using MARS data analysis software (BMG labtech) and this value was used to deduce the IC50 value (Dotmatics). […]

The target in the next test is Human recombinant LOXL3 (Homo sapiens, UniProt P58215). The test can be described thus: LOXL3 inhibition, Amplex Red oxidation assay. As to conditions: 30 min incubation with enzyme at 37 °C. How it is done: as §1
For another test, the target named is Human recombinant LOXL4 (Homo sapiens, UniProt Q96JB6). The test can be described thus: LOXL4 inhibition, Amplex Red oxidation assay. As to conditions: 30 min incubation with enzyme at 37 °C. How it is done: as §1
The target of another test is T2, LOXL2 (Homo sapiens, UniProt Q9Y4K0).
T2 sequence (Q9Y4K0 26-774): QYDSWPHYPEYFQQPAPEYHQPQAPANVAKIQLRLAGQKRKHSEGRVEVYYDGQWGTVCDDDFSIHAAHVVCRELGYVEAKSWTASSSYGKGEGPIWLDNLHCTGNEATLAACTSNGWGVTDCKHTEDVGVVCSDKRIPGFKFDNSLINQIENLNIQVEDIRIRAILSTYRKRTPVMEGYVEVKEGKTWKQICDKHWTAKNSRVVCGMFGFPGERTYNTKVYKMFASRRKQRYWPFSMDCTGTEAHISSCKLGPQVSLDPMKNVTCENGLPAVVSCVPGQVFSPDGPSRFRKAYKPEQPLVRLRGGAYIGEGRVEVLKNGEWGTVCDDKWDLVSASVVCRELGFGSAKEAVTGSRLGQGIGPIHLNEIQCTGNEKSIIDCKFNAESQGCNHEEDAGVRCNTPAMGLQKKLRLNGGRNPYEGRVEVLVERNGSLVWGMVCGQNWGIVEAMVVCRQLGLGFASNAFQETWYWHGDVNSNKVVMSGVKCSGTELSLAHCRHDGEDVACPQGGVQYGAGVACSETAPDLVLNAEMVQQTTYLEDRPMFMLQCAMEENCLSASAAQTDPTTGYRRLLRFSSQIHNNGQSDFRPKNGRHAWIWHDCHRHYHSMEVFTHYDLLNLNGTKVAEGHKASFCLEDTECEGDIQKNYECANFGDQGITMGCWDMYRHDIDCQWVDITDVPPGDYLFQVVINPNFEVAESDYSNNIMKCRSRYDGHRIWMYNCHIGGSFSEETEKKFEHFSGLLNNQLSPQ
The test can be described thus: LOXL2 inhibition, Amplex Red oxidation assay. How it is done: LOX and LOXL protein family members can be acquired as recombinant active proteins from commercial sources, or extracted from animal tissues like bovine aorta, tendons, pig skin; or prepared from cell cultures. The inhibitory effects of the compounds of the present invention were tested against the given LOX or LOXL preparation using a method based on the detection of hydrogen peroxide with an Amplex Red oxidation assay [Zhou et al, 1997]. The assay was developed using either 384 or 96 well format. Briefly, in a standard black, clear bottom 384 well plate assay 25 µL of a dilution of any of the isoenzymes and orthologues in 1.2 M urea, 50 mM sodium borate buffer (pH 8.2) were added into each well in the presence of […] and 0.5 mM pargyline (to inhibit SSAO and MAO-B and MAO-A, respectively; not necessary if the enzyme is from a recombinant or purified form). […] of a reaction mixture containing twice the KM concentration of putrescine (Sigma Aldrich, e.g. 20 mM for LOX and LOXL1 or 10 mM for LOXL2 and 4 mM for LOXL3 and LOXL4), 120 µM Amplex Red (Thermo Fisher Scientific) and 1.5 U/mL horseradish peroxidase (Sigma Aldrich) prepared in 1.2 M urea, 50 mM sodium borate buffer (pH 8.2) were then added to the corresponding wells. The above volumes were doubled in the case of 96 wells plate. The fluorescence (RFU) was read every 2.5 min for 30 min at 37 °C, excitation 544 nm and emission 590 (Optima; BMG labtech). The slope/min of the kinetics for each well was calculated using MARS data analysis software (BMG labtech) and this value was used to deduce the IC50 value (Dotmatics). The ability of the inventive compounds to inhibit the amine oxidase activity of LOX and other family members is shown in Table 5.

Where [1] appears, read: 30 min incubation with enzyme at 37 °C, read-out: Human recombinant LOXL2 Activity IC50.

Consider two compounds from patent publication US20260364030A1, “NOVEL SELECTIVE INHIBITORS OF LYSYL OXIDASES” (Syntara Limited, priority 2022, published 2026).

pIC50: −log10 of the molar value. Like-named read-outs stand apart in the source and are kept apart here.

Sequence of Human recombinant LOXL4 (Q96JB6 25-756): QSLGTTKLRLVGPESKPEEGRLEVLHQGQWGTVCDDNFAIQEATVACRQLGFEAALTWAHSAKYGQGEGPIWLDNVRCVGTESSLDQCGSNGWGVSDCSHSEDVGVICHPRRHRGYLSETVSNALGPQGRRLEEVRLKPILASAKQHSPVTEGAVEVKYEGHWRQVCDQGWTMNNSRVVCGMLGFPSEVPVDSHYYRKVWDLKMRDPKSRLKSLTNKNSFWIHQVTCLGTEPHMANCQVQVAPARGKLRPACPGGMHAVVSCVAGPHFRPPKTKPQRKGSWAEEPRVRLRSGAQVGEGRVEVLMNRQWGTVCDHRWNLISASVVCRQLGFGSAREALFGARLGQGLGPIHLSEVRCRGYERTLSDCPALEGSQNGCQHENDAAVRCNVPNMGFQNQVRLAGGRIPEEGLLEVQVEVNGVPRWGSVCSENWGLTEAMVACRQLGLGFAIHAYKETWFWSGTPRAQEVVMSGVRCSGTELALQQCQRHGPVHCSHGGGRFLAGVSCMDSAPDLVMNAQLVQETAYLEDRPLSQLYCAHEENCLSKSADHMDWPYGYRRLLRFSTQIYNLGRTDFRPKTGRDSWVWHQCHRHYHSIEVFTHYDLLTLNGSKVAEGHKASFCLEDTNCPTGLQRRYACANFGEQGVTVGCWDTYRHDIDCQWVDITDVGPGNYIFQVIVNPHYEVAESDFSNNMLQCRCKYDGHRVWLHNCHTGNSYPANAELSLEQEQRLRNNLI
Sequence of Human recombinant LOXL3 (P58215 26-753): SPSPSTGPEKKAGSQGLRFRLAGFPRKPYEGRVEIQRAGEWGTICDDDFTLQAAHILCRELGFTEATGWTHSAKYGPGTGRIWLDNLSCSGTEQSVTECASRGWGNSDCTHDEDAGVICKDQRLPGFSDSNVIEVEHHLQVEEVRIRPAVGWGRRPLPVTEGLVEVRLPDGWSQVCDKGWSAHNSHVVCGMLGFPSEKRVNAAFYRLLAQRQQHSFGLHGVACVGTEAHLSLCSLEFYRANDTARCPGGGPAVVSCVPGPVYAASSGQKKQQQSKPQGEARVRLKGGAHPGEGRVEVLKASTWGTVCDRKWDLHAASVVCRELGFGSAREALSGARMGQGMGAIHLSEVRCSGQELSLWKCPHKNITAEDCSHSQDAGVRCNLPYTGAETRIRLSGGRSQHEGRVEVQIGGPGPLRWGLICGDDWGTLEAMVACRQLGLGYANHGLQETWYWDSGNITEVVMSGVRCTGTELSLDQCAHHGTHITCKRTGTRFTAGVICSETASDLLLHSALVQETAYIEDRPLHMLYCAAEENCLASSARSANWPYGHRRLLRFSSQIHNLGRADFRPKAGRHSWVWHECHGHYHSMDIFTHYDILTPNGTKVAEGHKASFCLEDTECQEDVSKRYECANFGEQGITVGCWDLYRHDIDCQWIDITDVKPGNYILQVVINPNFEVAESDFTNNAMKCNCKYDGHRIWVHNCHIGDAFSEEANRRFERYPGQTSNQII

As usually defined, the pIC50 is −log10 of the IC50, conventionally taken in molar units. Turning to `NC/C(=C\F)CS(=O)(=O)c1ccccc1` [Compound 1, (E)-3-fluoro-2-((phenylsulfonyl)methyl)prop-2-en-1-amine], the pIC50 at LOXL1 is 4.88; on Human recombinant LOXL3, 5.23; on Human recombinant LOXL4, 5.33; on LOXL2 (setting [1]) it was 5.32; at LOXL2 (2 h incubation with enzyme at 37 °C, read-out: Human LOXL2 Activity IC50) it was above 5.70.
On to `N#CCCN` [BAPN, β-aminopropionitrile, reference compound], for which the negative-log IC50 (pIC50) was 5.60 at LOXL1, 6.30 at Human recombinant LOXL3, 6.52 at Human recombinant LOXL4 and 6.40 at LOXL2 (setting [1]).
